Results published in article PMC4912218, “Targeted metabolomics of Gammarus pulex following controlled exposures to selected pharmaceuticals in water” (The Science of the Total Environment, 2016).

Tested on: Gammarus pulex
Assay: Targeted metabolite profiling (LC-HRMS) of G. pulex after exposure at NOAEL and LOAEL
Type: in vivo
Protocol: Approximately 100 specimens were introduced in a tank containing 1 L of AFW (control), 1 L of AFW spiked with C1 and 1 L of AFW with C2. At three different times (2, 6 and 24 h), 4 replicates of live G. pulex (a pool of 6–7 animals for each replicate) were collected, frozen on dry ice and then stored at − 80 °C before metabolite profiling was performed.
Quantification of pharmaceutical concentrations in G. pulex at the 24 h exposure interval was performed. Separate exposures were set up in triplicate in beakers containing 200 mL of exposure solution (AFW spiked with the respective C1 pharmaceutical dose) and 20 organisms. At 24 h, animals were immediately rinsed with ultra-pure water and then frozen at − 20 °C for 24 h. […] Prior to extraction, frozen G. pulex samples were lyophilised at − 50 °C under vacuum for 48 h and milled in an agate mortar to a fine powder. For each analysis, 20 mg of a lyophilised composite sample were transferred to 2 mL polypropylene tubes (Eppendorf®, Hamburg, Germany), for solid-liquid extraction (SLE). […] Then, samples were shaken for 25 min on a vibration plate (IKA® KS 260 basic) and centrifuged at 14,000 rpm for 25 min at 0 °C. Finally, the supernatant was transferred to a chromatographic vial by using a […] syringe filter (Whatman, GE Healthcare Life Sciences, Buckinghamshire, UK). All samples were stored at − 80 °C until LC-HRMS analysis.
Briefly, 50 mg of lyophilised G. pulex were extracted in 5 mL of acetonitrile and pre-concentrated on Oasis HLB SPE cartridges (6 mL, 200 mg sorbent). The extract was eluted, dried-down and reconstituted in starting LC mobile phase. […] Organic acids, nucleosides, nucleotides, sugars and AAs were measured using LC–HRMS. An Exactive™ mass spectrometer equipped with heated electrospray ionization (H-ESI) source was used (Thermo Fisher Scientific, Bremen, Germany). The system was equipped with a HTC PAL autosampler and a Surveyor MS Plus pump. A TSK Gel-Amide 80 column (2 × 250 mm, 5 μm) for analyte separation was purchased from Sigma Aldrich. Mobile phases were binary mixtures of acetonitrile (A) and 5 mM ammonium acetate (pH 5) in HPLC-grade water (B). […] The flow rate was set at 150 μL min^− 1 and the injection volume was 5 μL. […] Full scan acquisition over a mass range of 80–800 Da was performed at 70,000 full width at half maximum (FWHM) and spray voltage at 3.00 kV, capillary voltage at 30 V, skimmer voltage at 28 V and tube lens voltage at 130 V were used. A sheath gas flow rate of 45 arbitrary units (au), an auxiliary gas flow rate of 10 au and a capillary temperature at 300 °C were selected.
Here, pharmaceutical residue quantification in exposed G. pulex was performed by a 3-point matrix-matched calibration curve. […] The algal amino acid mixture-^13C,^15N (see Table 1) was used as internal standard (IS) for extraction and analytical control. L-ornithine hydrochloride, inosine, thymidine, taurine, 1.7-dimethylxanthine and (−)-riboflavin were quantified using either ^13C,^15N-proline or ^13C,^15N-tyrosine as the internal standard. The remaining 15 compounds were quantified using external calibration and the target compound itself was used as external standard. […] The method detection limit (MDL) was calculated following the same procedure, using spiked lyophilised G. pulex samples at a concentration of 1 μg g^− 1. Intra-assay variation was assessed using five consecutive injections of 5 ng μL^− 1 standard solution, and inter-assay variation was determined by measuring the same standard solution on four different days. […] Recovery studies were performed in triplicate, using lyophilised G. pulex samples spiked at 1 μg g^− 1 with the metabolites mixture and the algal amino acid mixture-^13C, ^15N.

## Oc1cc(Cl)ccc1Oc1ccc(Cl)cc1Cl [Triclosan]
6h, C2= 0.3 mg/L
  (-)-Riboflavin concentration in G. pulex: 2.6 ± 0.3 µg/g
  ADP concentration in G. pulex: 28.2 ± 0.3 µg/g
  Cytidine concentration in G. pulex: 19 ± 7 µg/g
  Hypoxanthine concentration in G. pulex: 74 ± 18 µg/g
  Inosine concentration in G. pulex: 23098 ± 627 µg/g
  L-2-amino-n-butyric concentration in G. pulex: 19.8 ± 2 µg/g
  L-(-)-Proline concentration in G. pulex: 246 ± 4 µg/g
  L-Alanine concentration in G. pulex: 784 ± 31 µg/g
  L-Citrulline concentration in G. pulex: 12.3 ± 1 µg/g
  L-Isoleucine concentration in G. pulex: 1561 ± 147 µg/g
  L-Leucine concentration in G. pulex: 353 ± 4 µg/g
  L-Methionine concentration in G. pulex: 4.6 ± 0.8 µg/g
  L-Phenylalanine concentration in G. pulex: 233 ± 5 µg/g
  L-Serine concentration in G. pulex: 168 ± 2 µg/g
  L-Threonine concentration in G. pulex: 486 ± 8 µg/g
  L-Tryptophan concentration in G. pulex: 134 ± 10 µg/g
  L-Tyrosine concentration in G. pulex: 234 ± 2 µg/g
  L-Valine concentration in G. pulex: 299 ± 18 µg/g
  L-aspartic acid concentration in G. pulex: 36.1 ± 6 µg/g
  NADH concentration in G. pulex: 8.1 ± 0.8 µg/g
  Taurine concentration in G. pulex: 8484 ± 60 µg/g
  Thymidine concentration in G. pulex: 1163 ± 130 µg/g
  Trehalose concentration in G. pulex: 251 ± 4 µg/g
  Uridine concentration in G. pulex: 533 ± 28 µg/g
24h, C1= 0.1 mg/L
  (-)-Riboflavin concentration in G. pulex: 2.4 ± 2 µg/g
  ADP concentration in G. pulex: 18.7 ± 1 µg/g
  Cytidine concentration in G. pulex: 19 ± 3 µg/g
  Hypoxanthine concentration in G. pulex: 95 ± 27 µg/g
  Inosine concentration in G. pulex: 18957 ± 5084 µg/g
  L-2-amino-n-butyric concentration in G. pulex: 16.8 ± 5 µg/g
  L-(-)-Proline concentration in G. pulex: 293 ± 13 µg/g
  L-Alanine concentration in G. pulex: 810 ± 110 µg/g
  L-Citrulline concentration in G. pulex: 8.3 ± 0.5 µg/g
  L-Isoleucine concentration in G. pulex: 1743 ± 224 µg/g
  L-Leucine concentration in G. pulex: 376 ± 13 µg/g
  L-Methionine concentration in G. pulex: 7.0 ± 0.3 µg/g
  L-Phenylalanine concentration in G. pulex: 260 ± 6 µg/g
  L-Serine concentration in G. pulex: 120 ± 12 µg/g
  L-Threonine concentration in G. pulex: 600 ± 20 µg/g
  L-Tryptophan concentration in G. pulex: 72 ± 8 µg/g
  L-Tyrosine concentration in G. pulex: 307 ± 4 µg/g
  L-Valine concentration in G. pulex: 398 ± 17 µg/g
  L-aspartic acid concentration in G. pulex: 82.5 ± 26 µg/g
  NADH concentration in G. pulex: 7.7 ± 0.1 µg/g
  Taurine concentration in G. pulex: 12433 ± 2122 µg/g
  Thymidine concentration in G. pulex: 1718 ± 19 µg/g
  Trehalose concentration in G. pulex: 251 ± 22 µg/g
  Uridine concentration in G. pulex: 644 ± 77 µg/g
24h, C2= 0.3 mg/L
  (-)-Riboflavin concentration in G. pulex: 2.6 ± 0.8 µg/g
  ADP concentration in G. pulex: 29.3 ± 0.8 µg/g
  Cytidine concentration in G. pulex: 16 ± 3 µg/g
  Hypoxanthine concentration in G. pulex: 53 ± 10 µg/g
  Inosine concentration in G. pulex: 36017 ± 80 µg/g
  L-2-amino-n-butyric concentration in G. pulex: 21.5 ± 2 µg/g
  L-(-)-Proline concentration in G. pulex: 207 ± 3 µg/g
  L-Alanine concentration in G. pulex: 673 ± 17 µg/g
  L-Citrulline concentration in G. pulex: 13.8 ± 2 µg/g
  L-Isoleucine concentration in G. pulex: 1164 ± 39 µg/g
  L-Leucine concentration in G. pulex: 299 ± 0.7 µg/g
  L-Methionine concentration in G. pulex: 3.1 ± 0.9 µg/g
  L-Phenylalanine concentration in G. pulex: 134 ± 0.5 µg/g
  L-Serine concentration in G. pulex: 167 ± 15 µg/g
  L-Threonine concentration in G. pulex: 440 ± 11 µg/g
  L-Tryptophan concentration in G. pulex: 115 ± 8 µg/g
  L-Tyrosine concentration in G. pulex: 224 ± 1 µg/g
  L-Valine concentration in G. pulex: 250 ± 3 µg/g
  L-aspartic acid concentration in G. pulex: 33.9 ± 11 µg/g
  NADH concentration in G. pulex: 9.9 ± 0.3 µg/g
  Taurine concentration in G. pulex: 8468 ± 142 µg/g
  Thymidine concentration in G. pulex: 396 ± 12 µg/g
  Trehalose concentration in G. pulex: 378 ± 17 µg/g
  Uridine concentration in G. pulex: 574 ± 15 µg/g
